Data taken from patent US6358885B1, “Substituted phenylheterocyclic herbicides” (Mississippi State University, priority 1992, dated 2002).

Columns and labels:
[1] = test system: barnyardgrass; assay: Test B preemergence/postemergence greenhouse plant response rating 0 to 10; type: in vivo, Echinochloa crus-galli; details: for Plant response rating, Barnyardgrass: 0 to 10 scale
Outline: (§1)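 Postemergence treatment of plants two to eighteen cm tall ran alongside preemergence treatment of planted seed, each using compound in a non-phytotoxic solvent.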

[2] = test system: cheatgrass; assay: as above; type: in vivo, Bromus secalinus; details: for Plant response rating, Cheatgrass: 0 to 10 scale
Outline: as §1

[3] = test system: chickweed; assay: as above; type: in vivo, Stellaria media; details: for Plant response rating, Chickweed: 0 to 10 scale
Outline: as §1

[4] = test system: corn; assay: as above; type: in vivo, Zea mays; details: for Plant response rating, Corn: 0 to 10 scale
Outline: as §1

[5] = test system: crabgrass; assay: as above; type: in vivo, Digitaria spp.; details: for Plant response rating, Crabgrass: 0 to 10 scale
Outline: as §1

[6] = test system: giant foxtail; assay: as above; type: in vivo, Setaria faberii; details: for Plant response rating, Giant foxtail: 0 to 10 scale
Outline: as §1

[7] = test system: morningglory; assay: as above; type: in vivo, Ipomoea hederacea; details: for Plant response rating, Morningglory: 0 to 10 scale
Outline: as §1

[8] = test system: rape; assay: as above; type: in vivo, Brassica napus; details: for Plant response rating, Rape: 0 to 10 scale
Outline: as §1

[9] = test system: velvetleaf; assay: as above; type: in vivo, Abutilon theophrasti; details: for Plant response rating, Velvetleaf: 0 to 10 scale
Outline: as §1

[10] = test system: barley; assay: Test C preemergence/postemergence greenhouse plant response rating 0 to 100; type: in vivo, Hordeum vulgare; details: for Plant response rating Barley Igri: 0 to 100 scale
Outline: (§2)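 Compounds in non-phytotoxic solvent applied preemergence to sandy loam one day after planting, postemergence at the 1–4 leaf stage, or to ~2.5 cm floodwater over silt loam.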

[11] = test system: lambsquarters; assay: as above; type: in vivo, Chenopodium album; details: for Plant response rating Lambsquarters: 0 to 100 scale
Outline: as §2

[12] = test system: morningglory; assay: as above; type: in vivo, Ipomoea hederacea; details: for Plant response rating, Morningglory: 0 to 100 scale
Outline: as §2

[13] = test system: soybean; assay: as above; type: in vivo, Glycine max; details: for Plant response rating, Soybean: 0 to 100 scale
Outline: as §2

SMILES: C#CC(C)Oc1cc(-c2nn3c(c2Br)CCCC3)c(F)cc1Cl (centres unmarked) [Compound 66]
- Plant response rating, Barnyardgrass ([1]; POSTEMERGENCE, Rate 50 g/ha): 5
- Plant response rating, Barnyardgrass ([1]; PREEMERGENCE, Rate 50 g/ha): 0
- Plant response rating (0 to 10 scale), Barnyardgrass ([1]; PREEMERGENCE, Rate 200 g/ha): 7
- Plant response rating, Barnyardgrass ([1]; Rate 200 g/ha, POSTEMERGENCE): 9
- Plant response rating, Cheatgrass ([2]; POSTEMERGENCE, Rate 50 g/ha): 3
- Plant response rating, Cheatgrass ([2]; PREEMERGENCE, Rate 50 g/ha): 1
- Plant response rating (0 to 10 scale), Cheatgrass ([2]; PREEMERGENCE, Rate 200 g/ha): 6
- Plant response rating, Cheatgrass ([2]; Rate 200 g/ha, POSTEMERGENCE): 6
- Plant response rating, Chickweed ([3]; PREEMERGENCE, Rate 50 g/ha): 4
- Plant response rating (0 to 10 scale), Chickweed ([3]; PREEMERGENCE, Rate 200 g/ha): 5
- Plant response rating, Corn ([4]; POSTEMERGENCE, Rate 50 g/ha): 3
- Plant response rating, Corn ([4]; PREEMERGENCE, Rate 50 g/ha): 0
- Plant response rating (0 to 10 scale), Corn ([4]; PREEMERGENCE, Rate 200 g/ha): 0
- Plant response rating, Corn ([4]; Rate 200 g/ha, POSTEMERGENCE): 3
- Plant response rating, Crabgrass ([5]; POSTEMERGENCE, Rate 50 g/ha): 4
- Plant response rating, Crabgrass ([5]; PREEMERGENCE, Rate 50 g/ha): 0
- Plant response rating (0 to 10 scale), Crabgrass ([5]; PREEMERGENCE, Rate 200 g/ha): 3
- Plant response rating, Crabgrass ([5]; Rate 200 g/ha, POSTEMERGENCE): 5
- Plant response rating, Giant foxtail ([6]; POSTEMERGENCE, Rate 50 g/ha): 7
- Plant response rating, Giant foxtail ([6]; PREEMERGENCE, Rate 50 g/ha): 0
- Plant response rating (0 to 10 scale), Giant foxtail ([6]; PREEMERGENCE, Rate 200 g/ha): 6
- Plant response rating, Giant foxtail ([6]; Rate 200 g/ha, POSTEMERGENCE): 6
- Plant response rating, Morningglory ([7]; POSTEMERGENCE, Rate 50 g/ha): 10
- Plant response rating, Morningglory ([7]; PREEMERGENCE, Rate 50 g/ha): 0
- Plant response rating (0 to 10 scale), Morningglory ([7]; PREEMERGENCE, Rate 200 g/ha): 2
- Plant response rating, Morningglory ([7]; Rate 200 g/ha, POSTEMERGENCE): 10
- Plant response rating, Rape ([8]; POSTEMERGENCE, Rate 50 g/ha): 10
- Plant response rating, Rape ([8]; PREEMERGENCE, Rate 50 g/ha): 1
- Plant response rating (0 to 10 scale), Rape ([8]; PREEMERGENCE, Rate 200 g/ha): 5
- Plant response rating, Rape ([8]; Rate 200 g/ha, POSTEMERGENCE): 10
- Plant response rating, Velvetleaf ([9]; POSTEMERGENCE, Rate 50 g/ha): 10
- Plant response rating, Velvetleaf ([9]; PREEMERGENCE, Rate 50 g/ha): 6
- Plant response rating (0 to 10 scale), Velvetleaf ([9]; PREEMERGENCE, Rate 200 g/ha): 9
- Plant response rating, Velvetleaf ([9]; Rate 200 g/ha, POSTEMERGENCE): 10
- Plant response rating Barley Igri ([10]; POSTEMERGENCE, 62 g/ha): 50
- Plant response rating Barley Igri ([10]; POSTEMERGENCE, 250 g/ha): 60
- Plant response rating (0 to 100), Barley Igri ([10]; POSTEMERGENCE, Rate 4 g/ha): 30
- Plant response rating Barley Igri ([10]; PREEMERGENCE, 62 g/ha): 0
- Plant response rating Barley Igri ([10]; PREEMERGENCE, 250 g/ha): 20
- Plant response rating (0 to 100), Barley Igri ([10]; PREEMERGENCE, Rate 4 g/ha): 0
- Plant response rating (0 to 100), Barley Igri ([10]; Rate 16 g/ha, POSTEMERGENCE): 30
- Plant response rating (0 to 100), Barley Igri ([10]; Rate 16 g/ha, PREEMERGENCE): 0
- Plant response rating Lambsquarters ([11]; POSTEMERGENCE, 62 g/ha): 100
- Plant response rating Lambsquarters ([11]; POSTEMERGENCE, 250 g/ha): 100
- Plant response rating (0 to 100), Lambsquarters ([11]; POSTEMERGENCE, Rate 4 g/ha): 30
- Plant response rating Lambsquarters ([11]; PREEMERGENCE, 62 g/ha): 100
- Plant response rating Lambsquarters ([11]; PREEMERGENCE, 250 g/ha): 100
- Plant response rating (0 to 100), Lambsquarters ([11]; PREEMERGENCE, Rate 4 g/ha): 0
- Plant response rating (0 to 100), Lambsquarters ([11]; Rate 16 g/ha, POSTEMERGENCE): 80
- Plant response rating (0 to 100), Lambsquarters ([11]; Rate 16 g/ha, PREEMERGENCE): 70
- Plant response rating, Morningglory ([12]; POSTEMERGENCE, 62 g/ha): 85
- Plant response rating, Morningglory ([12]; POSTEMERGENCE, 250 g/ha): 100
- Plant response rating (0 to 100), Morningglory ([12]; POSTEMERGENCE, Rate 4 g/ha): 50
- Plant response rating, Morningglory ([12]; PREEMERGENCE, 62 g/ha): 10
- Plant response rating, Morningglory ([12]; PREEMERGENCE, 250 g/ha): 60
- Plant response rating (0 to 100), Morningglory ([12]; PREEMERGENCE, Rate 4 g/ha): 0
- Plant response rating (0 to 100), Morningglory ([12]; Rate 16 g/ha, POSTEMERGENCE): 50
- Plant response rating (0 to 100), Morningglory ([12]; Rate 16 g/ha, PREEMERGENCE): 0
- Plant response rating, Soybean ([13]; POSTEMERGENCE, 62 g/ha): 60
- Plant response rating, Soybean ([13]; POSTEMERGENCE, 250 g/ha): 70
- Plant response rating (0 to 100), Soybean ([13]; POSTEMERGENCE, Rate 4 g/ha): 20
- Plant response rating, Soybean ([13]; PREEMERGENCE, 250 g/ha): 20
- Plant response rating (0 to 100), Soybean ([13]; PREEMERGENCE, Rate 4 g/ha): 0
- Plant response rating (0 to 100), Soybean ([13]; Rate 16 g/ha, POSTEMERGENCE): 50
- Plant response rating (0 to 100), Soybean ([13]; Rate 16 g/ha, PREEMERGENCE): 0

SMILES: COCN1C(=O)COc2cc(F)c(-c3nn4c(c3Br)CCCC4)cc21 [Compound 67]
- Plant response rating, Barnyardgrass ([1]; POSTEMERGENCE, Rate 10 g/ha): 5
- Plant response rating, Barnyardgrass ([1]; POSTEMERGENCE, Rate 50 g/ha): 6
- Plant response rating, Barnyardgrass ([1]; PREEMERGENCE, Rate 10 g/ha): 2
- Plant response rating, Barnyardgrass ([1]; PREEMERGENCE, Rate 50 g/ha): 6
- Plant response rating, Cheatgrass ([2]; POSTEMERGENCE, Rate 10 g/ha): 5
- Plant response rating, Cheatgrass ([2]; POSTEMERGENCE, Rate 50 g/ha): 6
- Plant response rating, Cheatgrass ([2]; PREEMERGENCE, Rate 10 g/ha): 2
- Plant response rating, Cheatgrass ([2]; PREEMERGENCE, Rate 50 g/ha): 6
- Plant response rating, Chickweed ([3]; POSTEMERGENCE, Rate 10 g/ha): 7
- Plant response rating, Chickweed ([3]; POSTEMERGENCE, Rate 50 g/ha): 9
- Plant response rating, Chickweed ([3]; PREEMERGENCE, Rate 10 g/ha): 0
- Plant response rating, Chickweed ([3]; PREEMERGENCE, Rate 50 g/ha): 6
- Plant response rating, Corn ([4]; POSTEMERGENCE, Rate 10 g/ha): 3
- Plant response rating, Corn ([4]; POSTEMERGENCE, Rate 50 g/ha): 4
- Plant response rating, Corn ([4]; PREEMERGENCE, Rate 50 g/ha): 2
- Plant response rating, Crabgrass ([5]; POSTEMERGENCE, Rate 10 g/ha): 5
- Plant response rating, Crabgrass ([5]; POSTEMERGENCE, Rate 50 g/ha): 6
- Plant response rating, Crabgrass ([5]; PREEMERGENCE, Rate 10 g/ha): 0
- Plant response rating, Crabgrass ([5]; PREEMERGENCE, Rate 50 g/ha): 2
- Plant response rating, Giant foxtail ([6]; POSTEMERGENCE, Rate 10 g/ha): 5
- Plant response rating, Giant foxtail ([6]; POSTEMERGENCE, Rate 50 g/ha): 6
- Plant response rating, Giant foxtail ([6]; PREEMERGENCE, Rate 10 g/ha): 0
- Plant response rating, Giant foxtail ([6]; PREEMERGENCE, Rate 50 g/ha): 2
- Plant response rating, Morningglory ([7]; POSTEMERGENCE, Rate 10 g/ha): 10
- Plant response rating, Morningglory ([7]; POSTEMERGENCE, Rate 50 g/ha): 10
- Plant response rating, Morningglory ([7]; PREEMERGENCE, Rate 50 g/ha): 2
- Plant response rating, Rape ([8]; POSTEMERGENCE, Rate 10 g/ha): 9
- Plant response rating, Rape ([8]; POSTEMERGENCE, Rate 50 g/ha): 10
- Plant response rating, Rape ([8]; PREEMERGENCE, Rate 50 g/ha): 3
- Plant response rating, Velvetleaf ([9]; POSTEMERGENCE, Rate 10 g/ha): 9
- Plant response rating, Velvetleaf ([9]; POSTEMERGENCE, Rate 50 g/ha): 10
- Plant response rating, Velvetleaf ([9]; PREEMERGENCE, Rate 50 g/ha): 1
- Plant response rating Barley Igri ([10]; POSTEMERGENCE, 62 g/ha): 50
- Plant response rating (0 to 100), Barley Igri ([10]; POSTEMERGENCE, Rate 1 g/ha): 20
- Plant response rating (0 to 100), Barley Igri ([10]; POSTEMERGENCE, Rate 4 g/ha): 30
- Plant response rating (0 to 100), Barley Igri ([10]; Rate 16 g/ha, POSTEMERGENCE): 30
- Plant response rating Lambsquarters ([11]; POSTEMERGENCE, 62 g/ha): 100
- Plant response rating (0 to 100), Lambsquarters ([11]; POSTEMERGENCE, Rate 1 g/ha): 100
- Plant response rating (0 to 100), Lambsquarters ([11]; POSTEMERGENCE, Rate 4 g/ha): 100
- Plant response rating (0 to 100), Lambsquarters ([11]; Rate 16 g/ha, POSTEMERGENCE): 100
- Plant response rating, Morningglory ([12]; POSTEMERGENCE, 62 g/ha): 100
- Plant response rating (0 to 100), Morningglory ([12]; POSTEMERGENCE, Rate 1 g/ha): 50
- Plant response rating (0 to 100), Morningglory ([12]; POSTEMERGENCE, Rate 4 g/ha): 70
- Plant response rating (0 to 100), Morningglory ([12]; Rate 16 g/ha, POSTEMERGENCE): 100
- Plant response rating, Soybean ([13]; POSTEMERGENCE, 62 g/ha): 95
- Plant response rating (0 to 100), Soybean ([13]; POSTEMERGENCE, Rate 1 g/ha): 30
- Plant response rating (0 to 100), Soybean ([13]; POSTEMERGENCE, Rate 4 g/ha): 50
- Plant response rating (0 to 100), Soybean ([13]; Rate 16 g/ha, POSTEMERGENCE): 80
